The supplement of paper PMC10307832

Assays:
Experiment in all cases: relative viability (nuclei count vs DMSO), 5 days (fraction); higher = more cells survive
Midostaurin + Alpelisib = compound: CO[C@@H]1[C@H](N(C)C(=O)c2ccccc2)C[C@H]2O[C@]1(C)n1c3ccccc3c3c4c(c5c6ccccc6n2c5c31)C(=O)NC4 [Midostaurin] + Cc1nc(NC(=O)N2CCC[C@H]2C(N)=O)sc1-c1ccnc(C(C)(C)C(F)(F)F)c1 [Alpelisib] (partner 2 µM)
How it was run: (§1)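 One day after seeding in 1536-well plates, lung cancer cell lines were dosed by pin tool. Dosing was either single-drug or a fixed anchor-drug dose plus five library-drug doses (not always all listed) in √10 steps. After 5 days, nuclei were stained in one fix-and-stain step and counted on 4× images, and relative viability is the nuclei count of treated wells over that of vehicle wells, given as the median of duplicate plates.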

Midostaurin + Vorinostat = compound: CO[C@@H]1[C@H](N(C)C(=O)c2ccccc2)C[C@H]2O[C@]1(C)n1c3ccccc3c3c4c(c5c6ccccc6n2c5c31)C(=O)NC4 [Midostaurin] + O=C(CCCCCCC(=O)Nc1ccccc1)NO [Vorinostat] (partner 1 µM)
How it was run: as §1

[1] = compound: COc1cc(-c2nn([C@H]3CC[C@H](N4CCN(C(C)=O)CC4)CC3)c3ncnc(N)c23)ccc1NC(=O)c1cc2ccccc2n1C + COc1cccc2cc(-c3nc([C@H]4CC[C@H](C(=O)O)CC4)n4ncnc(N)c34)[nH]c12 [OSI-027] (partner 0.5 µM)
How it was run: as §1

[2] = compound: COc1cc(-c2nn([C@H]3CC[C@H](N4CCN(C(C)=O)CC4)CC3)c3ncnc(N)c23)ccc1NC(=O)c1cc2ccccc2n1C + C[C@]1(O)C[C@@H](c2nc(-c3ccc4ccc(-c5ccccc5)nc4c3)c3c(N)nccn32)C1 [Linsitinib] (partner 1 µM)
How it was run: as §1

[3] = compound: COc1cc(-c2nn([C@H]3CC[C@H](N4CCN(C(C)=O)CC4)CC3)c3ncnc(N)c23)ccc1NC(=O)c1cc2ccccc2n1C + Cc1nc(Nc2ncc(C(=O)Nc3c(C)cccc3Cl)s2)cc(N2CCN(CCO)CC2)n1 [Dasatinib] (partner 0.075 µM)
How it was run: as §1

**Q.** UMC-11 was tested. Which relative viability (Midostaurin + Alpelisib; first compound 0.01 µM) did it give?
**A.** 1.04

**Q.** What about the relative viability (Midostaurin + Alpelisib; first compound 0.03162 µM) of the same cell line?
**A.** 0.915

**Q.** And the relative viability (Midostaurin + Alpelisib; first compound 0.1 µM)?
**A.** 0.792

**Q.** What about the relative viability (Midostaurin + Alpelisib; first compound 0.3162 µM) of the same cell line?
**A.** 0.375

**Q.** What about the relative viability (Midostaurin + Vorinostat; first compound 0.01 µM) of the same cell line?
**A.** 0.424

**Q.** And the relative viability (Midostaurin + Vorinostat; first compound 0.03162 µM)?
**A.** 0.445

**Q.** What about the relative viability (Midostaurin + Vorinostat; first compound 0.1 µM) of the same cell line?
**A.** 0.242

**Q.** And the relative viability (Midostaurin + Vorinostat; first compound 0.3162 µM)?
**A.** 0.187

**Q.** And the relative viability ([1]; first compound 0.0128 µM)?
**A.** 0.531

**Q.** What about the relative viability ([1]; first compound 0.04048 µM) of the same cell line?
**A.** 0.463

**Q.** What about the relative viability ([1]; first compound 0.128 µM) of the same cell line?
**A.** 0.474

**Q.** And the relative viability ([1]; first compound 1.28 µM)?
**A.** 0.414

**Q.** What about the relative viability ([2]; first compound 0.0128 µM) of the same cell line?
**A.** 0.961

**Q.** What about the relative viability ([2]; first compound 0.04048 µM) of the same cell line?
**A.** 1.01

**Q.** And the relative viability ([2]; first compound 0.128 µM)?
**A.** 0.984

**Q.** What about the relative viability ([2]; first compound 1.28 µM) of the same cell line?
**A.** 0.781

**Q.** What about the relative viability ([3]; first compound 0.0128 µM) of the same cell line?
**A.** 0.49

**Q.** What about the relative viability ([3]; first compound 0.04048 µM) of the same cell line?
**A.** 0.468

**Q.** And the relative viability ([3]; first compound 0.128 µM)?
**A.** 0.42

**Q.** What about the relative viability ([3]; first compound 1.28 µM) of the same cell line?
**A.** 0.446
